Converted amounts (≈) assume the structure as drawn.
Key:
Assay in all cases: microbe, parasite or virus in culture
Type in all cases: cell-based
[1] = system: Francisella tularensis (FT; Gram-negative); settings: read-out: MIC FT
[2] = system: Bacillus anthracis (BA; Gram-positive); settings: read-out: MIC BA
[3] = system: Yersinia pestis (YP; Gram-negative); settings: read-out: MIC YP
[4] = system: Brucella abortus (BAB; Gram-negative); settings: read-out: MIC BAB
[5] = system: Burkholderia mallei (BM; Gram-negative); settings: read-out: MIC BM
[6] = system: Burkholderia pseudomallei (BP; Gram-negative); settings: read-out: MIC BP
[7] = system: Mycobacteruim tuberculosis H37Rv (H37Rv); settings: Mycobacterium tuberculosis, read-out: MIC against Tubercle bacillus
[8] = system: methicillin-susceptible Staphylococcus aureus (MSSA); settings: read-out: MIC MSSA
[9] = system: methicillin-resistant Staphylococcus aureus (MRSA); settings: read-out: MIC MRSA
[10] = system: penicillin-susceptible S. pneumoniae (PSSP); settings: Streptococcus pneumoniae, read-out: MIC PSSP
[11] = system: penicillin-resistant S. pneumoniae (PRSP); settings: Streptococcus pneumoniae, read-out: MIC PRSP

Compound	MIC [1] [µg/mL]	MIC [2] [µg/mL]	MIC [3] [µg/mL]	MIC [4] [µg/mL]	MIC [5] [µg/mL]	MIC [6] [µg/mL]	MIC [7] [µg/mL]	MIC [8] [µg/mL]	MIC [9] [µg/mL]	MIC [10] [µg/mL]	MIC [11] [µg/mL]
CN(C)CCOc1c2[nH]c3ccc(Cl)cc3c2cc2c1[nH]c1ccc(Cl)cc12	0.25 (≈ 0.606 µM)	0.5 to 1 (≈ 1.21 to 2.43 µM)	2 (≈ 4.85 µM)	0.5 (≈ 1.21 µM)	8 (≈ 19.4 µM)	16 (≈ 38.8 µM)	–	–	–	–	–
CN(C)CC#Cc1c2[nH]c3ccc(F)cc3c2cc2c1[nH]c1ccc(F)cc12 [drawing 210]	0.25 (≈ 0.67 µM)	0.5 (≈ 1.34 µM)	2 (≈ 5.36 µM)	0.25 (≈ 0.67 µM)	8 (≈ 21.4 µM)	> 8	–	–	–	–	–
COc1c2[nH]c3ccc(F)cc3c2cc2c1[nH]c1ccc(F)cc12 [drawing 271]	–	–	–	–	–	–	> 10	–	–	–	–
Fc1ccc2[nH]c3c(O[C@H]4CCNC4)c4[nH]c5ccc(F)cc5c4cc3c2c1 [drawing 280]	–	–	–	–	–	–	5 (≈ 13.2 µM)	–	–	–	–
Clc1ccc2[nH]c3c(OCCCNCc4ccc[nH]4)c4[nH]c5ccc(Cl)cc5c4cc3c2c1	0.5 (≈ 1.05 µM)	0.5 (≈ 1.05 µM)	2 (≈ 4.19 µM)	0.5 (≈ 1.05 µM)	> 8	> 8	–	–	–	–	–
NCCOc1c2[nH]c3ccc(F)cc3c2cc2c1[nH]c1ccc(F)cc12	2 (≈ 5.69 µM)	4 (≈ 11.4 µM)	4 (≈ 11.4 µM)	1 (≈ 2.85 µM)	8 (≈ 22.8 µM)	16 (≈ 45.5 µM)	–	–	–	–	–
NCCOc1c2[nH]c3ccc(Cl)cc3c2cc2c1[nH]c1ccc(Cl)cc12	0.5 (≈ 1.3 µM)	2 (≈ 5.2 µM)	2 (≈ 5.2 µM)	0.5 (≈ 1.3 µM)	4 (≈ 10.4 µM)	8 (≈ 20.8 µM)	–	–	–	–	–
Fc1ccc2[nH]c3c(O[C@@H]4CCNC4)c4[nH]c5ccc(F)cc5c4cc3c2c1 [drawing 253]	≤ 0.25	< 0.25	1 (≈ 2.65 µM)	< 0.25	2 (≈ 5.3 µM)	4 (≈ 10.6 µM)	–	–	–	–	–
c1ccc2c(Cc3[nH]c4ccccc4c3Cc3c[nH]c4ccccc34)c[nH]c2c1	2 (≈ 5.33 µM)	4 (≈ 10.7 µM)	–	–	–	–	–	8 (≈ 21.3 µM)	8 (≈ 21.3 µM)	4 (≈ 10.7 µM)	2 (≈ 5.33 µM)
CN(C)CCOc1c2[nH]c3ccc(F)cc3c2cc2c1[nH]c1ccc(F)cc12 [drawing 195]	0.25 (≈ 0.659 µM)	0.5 (≈ 1.32 µM)	8 (≈ 21.1 µM)	0.5 (≈ 1.32 µM)	4 (≈ 10.5 µM)	8 (≈ 21.1 µM)	–	–	–	–	–
COc1c2[nH]c3ccc(F)cc3c2c(N2CCCC2)c2c1[nH]c1ccc(F)cc12	0.5 (≈ 1.28 µM)	1 (≈ 2.55 µM)	> 16	2 (≈ 5.11 µM)	> 16	> 16	–	–	–	–	–
NC1CCN(CCCOc2c3[nH]c4ccc(Cl)cc4c3cc3c2[nH]c2ccc(Cl)cc23)CC1	1 (≈ 2.08 µM)	2 (≈ 4.15 µM)	4 (≈ 8.31 µM)	1 (≈ 2.08 µM)	16 (≈ 33.2 µM)	> 16	–	–	–	–	–
Clc1ccc2[nH]c3c(OCCC4CCNCC4)c4[nH]c5ccc(Cl)cc5c4cc3c2c1	0.5 (≈ 1.11 µM)	≤ 0.25	1 (≈ 2.21 µM)	≤ 0.25	4 (≈ 8.84 µM)	> 8	–	–	–	–	–
c1ccc2c(Cc3c[nH]c4ccccc34)c[nH]c2c1	8 (≈ 32.5 µM)	> 64	–	–	–	–	–	> 64	> 64	> 64	8 (≈ 32.5 µM)
CN(C)CCCc1c2[nH]c3ccc(F)cc3c2cc2c1[nH]c1ccc(F)cc12	1 (≈ 2.65 µM)	1 (≈ 2.65 µM)	8 (≈ 21.2 µM)	1 (≈ 2.65 µM)	16 (≈ 42.4 µM)	> 16	–	–	–	–	–
FC(F)(F)c1c2[nH]c3ccccc3c2cc2c1[nH]c1ccccc12	0.5 (≈ 1.54 µM)	1 (≈ 3.08 µM)	> 16	2 (≈ 6.17 µM)	> 16	> 16	–	–	–	–	–
Fc1ccc2[nH]c3c(OCCCn4cncn4)c4[nH]c5ccc(F)cc5c4cc3c2c1 [drawing 231]	1 (≈ 2.4 µM)	0.5 (≈ 1.2 µM)	> 8	1 (≈ 2.4 µM)	> 8	> 8	–	–	–	–	–
N[C@H]1CC[C@@H](Oc2c3[nH]c4ccc(F)cc4c3cc3c2[nH]c2ccc(F)cc23)CC1	1 (≈ 2.47 µM)	0.5 (≈ 1.23 µM)	4 (≈ 9.87 µM)	0.5 (≈ 1.23 µM)	> 8	> 8	–	–	–	–	–
OC1CCN(CCOc2c3[nH]c4ccc(F)cc4c3cc3c2[nH]c2ccc(F)cc23)CC1	0.5 (≈ 1.15 µM)	0.5 (≈ 1.15 µM)	4 (≈ 9.19 µM)	1 (≈ 2.3 µM)	8 (≈ 18.4 µM)	> 8	–	–	–	–	–
C[N+](C)(C)CCOc1c2[nH]c3ccc(F)cc3c2cc2c1[nH]c1ccc(F)cc12.[I-]	1	0.5	> 8	2	8	8	–	–	–	–	–
Nc1nc(N)n(CCCOc2c3[nH]c4ccc(Cl)cc4c3cc3c2[nH]c2ccc(Cl)cc23)n1	1 (≈ 2.08 µM)	0.5 to 1 (≈ 1.04 to 2.08 µM)	8 (≈ 16.7 µM)	1 (≈ 2.08 µM)	> 8	> 8	–	–	–	–	–
C/N=C(\NC)NCCCOc1c2[nH]c3ccc(Cl)cc3c2cc2c1[nH]c1ccc(Cl)cc12	1 (≈ 2.13 µM)	0.5 (≈ 1.07 µM)	1 (≈ 2.13 µM)	0.5 (≈ 1.07 µM)	4 (≈ 8.54 µM)	4 (≈ 8.54 µM)	–	–	–	–	–
Fc1ccc2[nH]c3c(OCCCn4cncn4)c4[nH]c5ccc(F)cc5c4cc3c2c1 [drawing 276]	–	–	–	–	–	–	> 10	–	–	–	–

— US8399502B2, “Analogs of indole-3-carbinol and their use as agents against infection” (priority 2008, dated 2013)
